Test results reported in patent US20220047569A1, “METHOD AND COMPOUND FOR USE, IN TREATING AND/OR PREVENTING NETOSIS” (Jubilant EpiPad LLC, priority 2020, published 2022).

How the values were obtained:
[1] = test system: silica induced lung fibrosis; assay: Silica induced pro-fibrotic lung model; type: in vivo, C57BL/6 female mice; settings: 50 mg/kg PO, BID, day 7 to 11, therapeutic; silica mice
Experimental: The instillation of silica into the murine lung results in the development of fibrotic nodules that resemble simple silicotic nodular fibrosis, which develop in humans following some occupational exposures to dust and particulate aerosols. Silica can be delivered to rodents via aerosolization, intratracheal administration or oropharyngeal aspiration. C57BL/6 female mice at an age of 6-8 weeks were instilled with silica particles (2.5 mg/mouse) by non-surgical intratracheal (IT) method. The day of silica instillation was defined as day 0. Test compound was administered twice daily and standard of care was dosed once daily from day 7 to 11 for therapeutic intervention. Animals were monitored and evaluated for their clinical signs and body weight loss. Animals were euthanized on day 11 and the lungs were weighed and biomarkers were analyzed in lung.

4T1 cells = assay: Murine breast cancer efficacy model, 4T1 allograft; type: in vivo, Balb/C female mice; settings: for TGI (percent tumor growth inhibition): BID, PO, day 14, 4T1
Experimental: PAD4 is highly expressed in malignant tumours of various cell types, Here, the mouse mammary carcinoma of 4T1 and EMT6 cells were used as an experimental model. Mouse 4T1, and EMT-6, a breast cancer cell line was sourced from American Type Culture Collection (ATCC), USA. Cells were grown according to the product information. To establish allografts, the cells were harvested by trypsinization when they reached around 70 to 80% confluence. After harvesting, Balb/C female mice (7-8 weeks) were implanted with 4T1 (1 million cells/site) and EMT-6 (0.5 million cells/site) subcutaneously in the dorsal right flank of mice using a 1 mL BD syringe attached to a 24-gauge needle. When the tumors became palpable tumor measurement was initiated and at an approximate tumor volume of ˜110 and 93 mm3, respectively. Animals were randomized into different treatment groups keeping tumor volume and the number of animals/group similar across the groups and compound 143 treatment was initiated. The procedures involving the care and use of animals in the study was reviewed and approved by the Institutional Animal Care and Use Committee (IAEC/JDC/2021/246R) prior to conduct. During the study, the care and use of animals was in accordance with the principles outlined in the Guide for the Care and Use of Laboratory Animals, 8th Edition, 2010 (National Research Council) and every effort was made to minimize suffering. The animals were acclimatized for 7 days prior to experimental use. Mice were caged with free access to food and fresh water in a temperature-controlled room (22° C.-24° C.) on a 12 h light/dark cycle.
Tumor dimensions (length and breadth) were measured on days 1 (animal randomization based on tumor volume) and thrice weekly thereafter until study termination.
Tumor volumes were calculated using the formula (b2*1)*0.52 where l=length, b=breadth (Dusan Djokovic et al., BMC Cancer, 2010, 10:641).
The percent tumor growth inhibition (% TGI) as a function of anti-tumor efficacy were computed with respect to untreated vehicle control by comparing to the tumor volumes of day 1. […]

[2] = test system: Histone H3 Citrullination in Neutrophils; assay: Citrullination ELISA (Citrullinated Histone H3) in calcium ionophore stimulated neutrophils; type: cell-based; settings: Neutrophil; human neutrophils, 25 μM calcium ionophore, CitH3 ELISA
How it was run: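 Freshly isolated human donor neutrophils in RPMI with 2% BSA and 1 mM CaCl2 were pre-incubated 30 min with compound (10, 1, 0.1 μM), then stimulated 30 min with 25 μM calcium ionophore. After S7 nuclease digestion, lysates were assayed by citrullinated histone H3 ELISA (450 nm); IC50 from sigmoidal fits.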

IC50 [2]: 100 to 1000 nM
Compound: N[C@@H]1CCCN(C(=O)c2cc3c4c(c2)nc(-c2cc5cccc(Cl)c5n2CC2CC2)n4CCO3)C1 [Compound 143, (R)-(3-aminopiperidin-1-yl)(2-(7-chloro-1-(cyclopropylmethyl)-1H-indol-2-yl)-3,4-dihydro-5-oxa-1,2a-diazaacenaphthylen-7-yl)methanone]
Fibronectin level [1]: significant decrease
Lung weight [1]: significant decrease
TGI (percent tumor growth inhibition) (4T1 cells; 25 mg/kg): 24.3%
TGI (percent tumor growth inhibition) (4T1 cells; 50 mg/kg): 48.8%
Body weight changes (4T1 cells; 4T1 bearing mice, BID PO for 14 days): no significant body weight changes
